Laboratory results as given in the supplement of paper PMC10307832.

Columns and labels:
Test in all cases: relative viability (nuclei count vs DMSO), 5 days (fraction); higher = more cells survive
Shikonin + Foretinib = compound: CC(C)=CC[C@@H](O)C1=CC(=O)c2c(O)ccc(O)c2C1=O [Shikonin] + COc1cc2c(Oc3ccc(NC(=O)C4(C(=O)Nc5ccc(F)cc5)CC4)cc3F)ccnc2cc1OCCCN1CCOCC1 [Foretinib] (partner 0.25 µM)
How it was run: (§1)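 Lung cancer cell lines were pin-tool dosed in 1536-well plates on the day after seeding, with either a lone drug or a fixed anchor-drug dose plus five library-drug doses (not always all listed) in √10 steps. Nuclei were counted on 4× images after 5 days. Relative viability is the ratio of treated-well to vehicle-well nuclei counts, with each value a median of duplicate plates.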

Shikonin + Tozasertib = compound: CC(C)=CC[C@@H](O)C1=CC(=O)c2c(O)ccc(O)c2C1=O [Shikonin] + Cc1cc(Nc2cc(N3CCN(C)CC3)nc(Sc3ccc(NC(=O)C4CC4)cc3)n2)n[nH]1 [Tozasertib] (partner 0.1 µM)
How it was run: as §1

[1] = compound: CC(C)N(CCCNC(=O)Nc1ccc(C(C)(C)C)cc1)C[C@H]1O[C@@H](n2ccc3c(N)ncnc32)[C@H](O)[C@@H]1O + CC(C)C[C@H](NC(=O)[C@H](Cc1ccccc1)NC(=O)c1cnccn1)B(O)O [Bortezomib] (partner 0.002 µM)
How it was run: as §1

[2] = compound: CC(C)N(CCCNC(=O)Nc1ccc(C(C)(C)C)cc1)C[C@H]1O[C@@H](n2ccc3c(N)ncnc32)[C@H](O)[C@@H]1O + C[C@@H](Oc1cc(-c2cnn(C3CCNCC3)c2)cnc1N)c1c(Cl)ccc(F)c1Cl [Crizotinib] (partner 1 µM)
How it was run: as §1

Cell Line: UMC-11
- relative viability (Shikonin + Foretinib; first compound 0.01 µM): 1.02
- relative viability (Shikonin + Foretinib; first compound 0.1 µM): 1.13
- relative viability (Shikonin + Foretinib; first compound 0.3162 µM): 1.13
- relative viability (Shikonin + Foretinib; first compound 1 µM): 1.07
- relative viability (Shikonin + Tozasertib; first compound 0.01 µM): 0.185
- relative viability (Shikonin + Tozasertib; first compound 0.1 µM): 0.213
- relative viability (Shikonin + Tozasertib; first compound 0.3162 µM): 0.203
- relative viability (Shikonin + Tozasertib; first compound 1 µM): 0.169
- relative viability ([1]; first compound 0.08 µM): 0.654
- relative viability ([1]; first compound 0.253 µM): 0.531
- relative viability ([1]; first compound 0.8 µM): 0.673
- relative viability ([1]; first compound 2.53 µM): 0.79
- relative viability ([1]; first compound 8 µM): 0.617
- relative viability ([2]; first compound 0.08 µM): 0.579
- relative viability ([2]; first compound 0.253 µM): 0.706
- relative viability ([2]; first compound 0.8 µM): 0.723
- relative viability ([2]; first compound 2.53 µM): 0.656
- relative viability ([2]; first compound 8 µM): 0.636
